Assay results published in patent US8680049B2 (Zealand Pharma A/S, priority 2008, dated 2014).

What was measured:
[1] = target: T1, human GLP-1-R (Homo sapiens, UniProt P43220); test: GLP-1 receptor efficacy assay (cAMP, HEK293 cells); type: cell-based; for EC50: crude peptides with purity of less than 90%
T1 construct: expressed in transfected cells
Method: (§1) The 5′-end primers additionally encoded a near Kozak consensus sequence to ensure efficient translation.
(§2) 48 hr after transfection cells were seeded for limited dilution cloning and selected with 1 mg/ml G418 in the culture medium.
(§3) On the day of analysis, growth medium was removed and the cells washed once with 200 μl Tyrode buffer. Cells were incubated in 100 μl Tyrode buffer containing increasing concentrations of test peptides, 100 μM IBMX, and 6 mM glucose for up 15 min at 37° C. The reaction was stopped by addition of 25 μl 0.5 M HCl and incubated on ice for 60 min. The cAMP content was estimated using the FlashPlate® cAMP kit from Perkin-Elmer.

[2] = target: T2, human Glucagon-R (Homo sapiens, UniProt P47871); test: Glucagon receptor efficacy assay (cAMP, HEK293 cells); type: cell-based; conditions: read-out: GLUR EC50; note: crude peptides with purity of less than 90%
T2 construct: expressed in transfected cells
Method: as §1, §2, §3

[3] = tested on: primary rat adipocytes; type: cell-based
Method: Adipocytes were isolated from epididymal fat dissected from normal young adult Sprague-Dawley rats. The fat lumps were minced, incubated and shaken (220 rpm) with collagenase (1 mg/ml) in Krebs-Ringer buffer containing 4% BSA (KRB-BSA) for 60 minutes at 37° C. The suspension was filtered through a nylon filter (160 μm pore size) and the filtrate centrifuged at 200×g for 3 min. The subjacent medium beneath the upper floating layer of adipocytes was removed with a Pasteur-pipette. The adipocytes were washed 3 times in KRB-BSA buffer by re-suspension and centrifugation. The adipocytes were re-suspended in KRB-BSA, mixed, incubated in and shaken with test compounds in 96-deep well plates (50,000 cells/well) in a total volume of 1 ml at 37° C. for 60 min. The plates were placed on ice for at least 10 min after incubation followed by centrifugation at 200×g for 3 min. 300 μl of the buffer beneath the adipocyte layer were collected in a 96-deep well plate. This process was repeated two more times and the 3 extracts collected from each culture pooled together.

[4] = tested on: db/db mice; test: Oral glucose tolerance test (OGTT) in db/db mice; type: in vivo; conditions: i.p., 45 nmol/kg
Method: The animals were kept fasted during the experiment to prevent confounding food intake. Fifteen minutes later an oral dose of glucose (1 g/kg in 5 ml/kg) was given and BG levels were measured at t=30 min, t=60 min, t=120 min and t=240 min.
Difference from baseline (t=0) was calculated for each time point and AUC0-240 min values were determined. Statistical analyses of AUC values by one-way ANOVA and Dunnetts post-hoc analyses were performed with GraphPad Prism version 4. Differences were considered significant at the p<0.05 level.

[5] = tested on: C57Bl/6 mice; test: Food intake in normal mice; type: in vivo; conditions: fasted mice, s.c.; PYY3-36 30 nmol/kg, glucagon 500 nmol/kg, ZP2663 500 nmol/kg
Method: One week before study C57Bl/6 mice (8 weeks) (N=9-12 animals in each group) were conditioned to treatment by daily injections (s.c.) of 0.2 ml vehicle and acclimatized to handling by weighing them twice a week. Mice were stratified one day before start of experiment into groups with similar body weight (BW). […] After one hour pre-weighed food was introduced to the mice and food intake measured by weighing the remaining food after one hour and expressed relative to body weight (mg food/g BW). Statistical analyses of food intake data by one-way ANOVA and Dunnetts post-hoc analyses were performed with GraphPad Prism version 4. Differences were considered significant at the 0.05 level.

[6] = tested on: diet induced obese (DIO) mice; test: 28 day treatment of diet induced obese (DIO) mice: body weight and plasma cholesterols; type: in vivo
Method: Four weeks before drug treatments, C57Bl/6 male mice (7 weeks) (N=9-12 animals in each group) were put on high fat diet (HFD) and their day-night cycle reversed with lights On/Off at 2000/0800 hour. Experimental animals were conditioned to treatment by daily injections (s.c.) of 0.1 ml vehicle and acclimatized to handling by weighing them twice a week one week before start of drug administrations. […] Animals were fasted overnight before sacrifice. An eye blood sample (0.6 ml EDTA) was obtained the following morning immediately before cervical dislocation. Blood plasma samples were stored at −80° C. until analyzed for cholesterol, HDL and LDL using commercially available kits. Body weight gain throughout the treatment period was calculated for each animal by subtracting its weight at the initiation of treatment.
The effects of treatment on body weight gain and cholesterols were assessed by 2-way ANOVA with repeated measures and Bonferoni post-hoc analyses, using GraphPad Prism version 4. Differences were considered significant at the 0.05 level.

T1 sequence (P43220 24-463): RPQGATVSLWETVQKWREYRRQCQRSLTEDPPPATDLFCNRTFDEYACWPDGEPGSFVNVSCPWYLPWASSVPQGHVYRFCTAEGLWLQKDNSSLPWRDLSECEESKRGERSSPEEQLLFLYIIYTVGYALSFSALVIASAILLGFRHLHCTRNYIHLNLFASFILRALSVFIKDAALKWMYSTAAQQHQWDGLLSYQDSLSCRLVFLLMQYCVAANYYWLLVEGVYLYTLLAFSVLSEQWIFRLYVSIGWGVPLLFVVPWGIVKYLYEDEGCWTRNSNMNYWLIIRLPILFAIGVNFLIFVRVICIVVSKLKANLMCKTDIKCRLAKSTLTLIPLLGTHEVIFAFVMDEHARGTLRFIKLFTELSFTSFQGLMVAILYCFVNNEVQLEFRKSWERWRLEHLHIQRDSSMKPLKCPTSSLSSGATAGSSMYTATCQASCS
T2 sequence (P47871 26-477): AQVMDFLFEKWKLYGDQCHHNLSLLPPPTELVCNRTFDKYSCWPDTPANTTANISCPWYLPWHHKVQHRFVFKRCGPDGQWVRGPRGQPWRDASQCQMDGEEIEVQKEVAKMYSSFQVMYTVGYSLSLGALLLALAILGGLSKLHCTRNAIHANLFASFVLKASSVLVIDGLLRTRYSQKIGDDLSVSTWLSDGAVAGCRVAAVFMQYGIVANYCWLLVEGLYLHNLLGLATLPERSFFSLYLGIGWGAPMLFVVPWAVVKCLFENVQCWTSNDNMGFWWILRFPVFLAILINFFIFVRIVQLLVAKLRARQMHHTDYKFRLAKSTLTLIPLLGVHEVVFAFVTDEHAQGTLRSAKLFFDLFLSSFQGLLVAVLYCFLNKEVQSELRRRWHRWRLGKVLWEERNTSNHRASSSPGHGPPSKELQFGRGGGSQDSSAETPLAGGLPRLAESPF

Compound | EC50 [1] [nM] | EC50 [2] [nM] | further results
CC[C@H](C)[C@H](NC(=O)[C@H](Cc1ccccc1)NC(=O)[C@H](CC(=O)O)NC(=O)[C@H](CCCCN)NC(=O)[C@H](C)NC(=O)[C@H](CCCNC(=N)N)NC(=O)[C@H](CCCNC(=N)N)NC(=O)[C@H](CCC(=O)O)NC(=O)[C@H](CC(=O)O)NC(=O)[C@H](CC(C)C)NC(=O)[C@H](Cc1ccc(O)cc1)NC(=O)[C@H](CCCCN)NC(=O)[C@H](CO)NC(=O)[C@H](Cc1ccc(O)cc1)NC(=O)[C@H](CC(=O)O)NC(=O)[C@H](CO)NC(=O)[C@@H](NC(=O)[C@H](Cc1ccccc1)NC(=O)[C@@H](NC(=O)CNC(=O)[C@H](CCC(N)=O)NC(=O)[C@H](CO)NC(=O)[C@@H](N)Cc1c[nH]cn1)[C@@H](C)O)[C@@H](C)O)C(=O)N[C@@H](CCC(=O)O)C(=O)N[C@@H](Cc1c[nH]c2ccccc12)C(=O)N[C@@H](CC(C)C)C(=O)N[C@@H](CC(C)C)C(=O)N[C@@H](CO)C(=O)N[C@@H](C)C(N)=O [ZP2663] |  |  | EC50 [3]: 4.4 nM; effect on lipolysis in primary adipocyte cultures (in words) [3]: equipotent with glucagon; improvement of glucose tolerance [4]: 64.9%; glucose tolerance during OGTT (in words) ([4]; AUC0-240 min): significantly improved glucose tolerance; food intake during the first hour (in words) [5]: significantly decreased food intake; body weight gain (in words) ([6]; 500 nmol/kg b.i.d. s.c., 28 days): decreased body weight gain to a level similar to that observed with chow feeding; blood concentration of LDL cholesterol vs vehicle (in words) ([6]; 4 weeks b.i.d.): statistically significantly different from the vehicle group; fat deposition (in words) ([6]; 4 weeks treatment): significantly decreased fat deposition
H-HSQGTFTSDYSKYLDERRAKDFIEWLLRA-NH2 [Compound L006-0138] | 0.29 | 0.38 | 
H-HSQGTFTSDYSKYLDERRAKDFIDWLLSA-NH2 [Compound L006-0129] | 0.2 | 0.24 | 
H-HSQGTFTSDYSKYLDERRAKDFIRWLLSA-NH2 [Compound L006-0128] | 0.16 | 0.22 | 
H-HSQGTFTSDYSKYLDKRRAEDFIKWLLSA-NH2 [Compound L006-0094] | 0.16 | 0.25 | 
Exendin-4 |  |  | GLP-1R agonist activity (in words) [1]: very potent GLP-1R agonist; EC50, stimulation of lipolysis in primary rat adipocyte cultures ([3]; 60 min, glycerol formed): No effect
PYY(3-36): internal positive control for food intake (anorectic peptide) [reference compound] |  |  | food intake during the first hour (in words) [5]: anorectic effect
H-HSQGTFTSDYSKYLDERRAKDFIEWLLAA-NH2 [Compound L006-0136] | 0.22 | 0.33 | 
H-HSQGTFTSDYSKYLDERAAKDFIEWLLSA-NH2 [Compound L006-0108] | 0.53 | 0.81 | 

Continued, in another order:

EC50 [1] [nM] | EC50 [2] [nM] | Compound | further results
0.15 | 0.22 | CC[C@H](C)[C@H](NC(=O)[C@H](Cc1ccccc1)NC(=O)[C@H](CC(=O)O)NC(=O)[C@H](CCC(N)=O)NC(=O)[C@H](C)NC(=O)[C@H](CCCNC(=N)N)NC(=O)[C@H](CCCNC(=N)N)NC(=O)[C@H](CO)NC(=O)[C@H](CC(=O)O)NC(=O)[C@H](CC(C)C)NC(=O)[C@H](Cc1ccc(O)cc1)NC(=O)[C@H](CCCCN)NC(=O)[C@H](CO)NC(=O)[C@H](Cc1ccc(O)cc1)NC(=O)[C@H](CC(=O)O)NC(=O)[C@H](CO)NC(=O)[C@@H](NC(=O)[C@H](Cc1ccccc1)NC(=O)[C@@H](NC(=O)CNC(=O)[C@H](CCC(N)=O)NC(=O)[C@H](CO)NC(=O)[C@@H](N)Cc1c[nH]cn1)[C@@H](C)O)[C@@H](C)O)C(=O)N[C@@H](CCC(=O)O)C(=O)N[C@@H](Cc1c[nH]c2ccccc12)C(=O)N[C@@H](CC(C)C)C(=O)N[C@@H](CC(C)C)C(=O)N[C@@H](CO)C(=O)N[C@@H](C)C(N)=O [Compound L006-0090] | 
0.07 | 0.1 | H-HSQGTFTSDYSKYLDDRRARDFIDWLLSA-NH2 [Compound L006-0093] | 
0.07 | 0.13 | H-HSQGTFTSDYSKYLDERRAKDFIQWLLSA-NH2 [Compound L006-0084] | 
0.09 |  | H-HSQGTFTSDYSKYLDERRAQDFIEWLLSA-NH2 [Compound L006-0082] | 
0.14 | 0.23 | H-HSQGTFTSDYSKYLDSRRAKDFIEWLLSA-NH2 [Compound L006-0081] | 
